Source: patent publication US6146859A, “Facile synthesis of L-homophenylalanine by equilibrium shift enzymatic reaction using engineered tyrosine aminotransferase” (Academia Sinica, priority 1999, dated 2000)
Where “and” joins values, the source holds several entries; their conditions need not be identical. Equal values may be shown once.

Legend:
[1] = target: T1, genetically engineered tyrosine aminotransferase (Escherichia coli, UniProt P04693); assay: Tyrosine aminotransferase-catalyzed amino transfer to 2-oxo-4-phenylbutyric acid with various amino acids as amino donors; format: biochemical, E. coli; parameters: initial rate: unit not given here; settings: amino acid 0.20 mmol, 2-oxo-4-phenylbutyric acid 0.10 mmol, enzyme 1 unit, 5 mL Tris-HCl 20 mM pH 8.5, 37° C., 5 min; for initial rate: increase of homophenylalanine by HPLC
T1 construct: made in house; host or cells: E. coli
Description: Production of tyrosine aminotransferase: Genetically engineered tyrosine aminotransferase is preferably produced by overexpressing the gene product in E. coli according to the method described by Kuramitsu et al. in Biochem, Biophys. Res. Commu., 1989, 133:134, the contents of which are herein incorporated by references in their entirety. One unit of enzyme activity was defined as the activity that produces 1 μmol of product per minute.
The enzymatic activities of the genetically engineered tyrosine aminotransferase as described above were tested using various amino acids as amino donors and the results are shown in Table I. Each enzyme-catalyzed reaction was carried out in a mixture (5 mL) of Tris-HCl buffer (20 mM, pH 8.5) containing the tested amino acid (0.20 mmol) and 2-oxo-4-phenylbutyric acid (0.10 mmol) and the enzyme (1 unit) at 37° C. for 5 min. The initial rate was measured by calculating the increase of homophenylalanine concentration in each reaction based on HPLC analysis.

[2] = format: physicochemical; settings: pH 8.5
Procedure: Synthesis of L-homophenylalanine: The synthesis is conducted preferably in a reaction mixture (5 ml) containing Tris-HCl buffer (50 mM, pH 8.5), compound 1 (10 mmole, the final concentration of compound 1 is about 2 M), L-Glu (10 mM), pyridoxal 5-phosphate (20 mM) at 37° C. The reaction is initiated by adding the tyrosine aminotransferase (5 units) to the reaction solution and monitored by HPLC.
The HPLC chromatography is preferably conducted under the following conditions: column, 5C18; flow rate, 1 ml/min; gradient elution from an initial solution of 10% of eluent B+90% of eluent A to a final solution of 100% of eluent B in 20 minutes, wherein eluent A contains 5% ACN in 0.1% TFA and eluent B contains 95% ACN in 0.1% TFA; detector UV 214 nm. Initially, only peaks representing the starting materials L-glutamic acid having a retention time of 2.70 min and compound 1 having a retention time of 7.49 min appear in the HPLC graph as shown in the lower panel of FIG. 3. After adding the tyrosine aminotransferase, the areas of peaks corresponding to compound 1 and glutamic acid are decreased gradually, whereas areas of peaks corresponding to compound 2 having a retention time of 5.24 min and α-ketoglutamic acid having a retention time of 3.49 min are increased, as shown in the upper panel of FIG. 3. […]

[3] = target: T2, tyrosine aminotransferase (Escherichia coli, UniProt P04693); assay: Equilibrium constants of the tyrosine aminotransferase-catalyzed reaction with 2-oxo-4-phenylbutyric acid and various amino acids; format: biochemical, E. coli; settings: 2-oxo-4-phenylbutyric acid and the amino acid as substrates
T2 construct: made in house; host or cells: E. coli
Procedure: The HPLC chromatography is preferably conducted under the following conditions: column, 5C18; flow rate, 1 ml/min; gradient elution from an initial solution of 10% of eluent B+90% of eluent A to a final solution of 100% of eluent B in 20 minutes, wherein eluent A contains 5% ACN in 0.1% TFA and eluent B contains 95% ACN in 0.1% TFA; detector UV 214 nm. Initially, only peaks representing the starting materials L-glutamic acid having a retention time of 2.70 min and compound 1 having a retention time of 7.49 min appear in the HPLC graph as shown in the lower panel of FIG. 3. After adding the tyrosine aminotransferase, the areas of peaks corresponding to compound 1 and glutamic acid are decreased gradually, whereas areas of peaks corresponding to compound 2 having a retention time of 5.24 min and α-ketoglutamic acid having a retention time of 3.49 min are increased, as shown in the upper panel of FIG. 3. When the area of the peak representing compound 1 is reduced to one-fifth of the initial peak area, white precipitates appear in the reaction solution, while the peak area of compound 2 becomes stable and stays constant until the peak areas of compound 1 and glutamic acid are reduced to about baseline.

[4] = test system: microbial aminotransferase; settings: at more than 0.2M; cited from earlier work

T2 sequence (P04693 whole entry): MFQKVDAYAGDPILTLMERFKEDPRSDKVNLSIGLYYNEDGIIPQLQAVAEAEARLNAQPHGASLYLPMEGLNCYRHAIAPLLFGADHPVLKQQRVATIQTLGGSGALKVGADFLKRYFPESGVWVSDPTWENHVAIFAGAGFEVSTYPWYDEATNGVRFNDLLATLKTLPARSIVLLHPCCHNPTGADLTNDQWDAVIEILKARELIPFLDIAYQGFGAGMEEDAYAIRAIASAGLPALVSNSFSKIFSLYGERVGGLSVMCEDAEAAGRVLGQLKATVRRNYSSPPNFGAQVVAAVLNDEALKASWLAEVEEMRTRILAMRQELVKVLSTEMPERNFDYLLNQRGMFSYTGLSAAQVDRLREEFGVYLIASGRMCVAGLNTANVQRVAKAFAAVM
T1 sequence (P04693 whole entry, change not shown): as the sequence (P04693 whole entry) above

Structure (SMILES)	turnover rate [1]	initial rate [1]	solubility in the reaction solution [2]	Equilibrium Constant (Keq) [3]	inhibition of aminotransferase activity and conversion yield [4]
NCC(=O)O [L-Gly, glycine]	0.027 mM/min.unit	0.15			
CSCC[C@H](N)C(=O)O [L-Met, methionine]	0.268 mM/min.unit	1.47			
N[C@@H](CCc1ccccc1)C(=O)O [compound 2, L-homophenylalanine]			practically insoluble		
N[C@@H](CC(=O)O)C(=O)O [L-Asp, aspartic acid]	0.372 mM/min.unit	2.04		0.187	
C[C@@H](O)[C@H](N)C(=O)O [L-Thr, threonine]	0.009 mM/min.unit	0.05			
N[C@@H](CCC(=O)O)C(=O)O [L-Glu, glutamic acid]	0.539 mM/min.unit and 0.54 mM/min.unit	2.96		0.345	
N[C@@H](Cc1ccccc1)C(=O)O [L-Phe, phenylalanine]	0.605 mM/min.unit and 0.61 mM/min.unit	3.32		0.466	
N[C@@H](Cc1ccc(O)cc1)C(=O)O [L-Tyr, tyrosine]	0.619 mM/min.unit and 0.62 mM/min.unit	3.43		0.727	
N[C@@H](Cc1c[nH]cn1)C(=O)O [L-His, histidine]	0.089 mM/min.unit	0.49			
N[C@@H](CO)C(=O)O [L-Ser, serine]	0.002 mM/min.unit	0.01			
CC[C@H](C)[C@H](N)C(=O)O [L-Ile, isoleucine]	0.005 mM/min.unit	0.03			
NCCCC[C@H](N)C(=O)O [L-Lys, lysine]	0.046 mM/min.unit	0.25			
C[C@H](N)C(=O)O [L-Ala, alanine]	0.042 mM/min.unit	0.23			
CC(C)[C@H](N)C(=O)O [L-Val, valine]	0.058 mM/min.unit	0.32			
CC(C)C[C@H](N)C(=O)O [L-Leu, leucine]	0.106 mM/min.unit	0.58			
O=C(O)C(=O)CCc1ccccc1 [2-oxo-4-phenylbutyric acid]					markedly inhibited
